Measurements: a melting point compilation (Tetko et al.)

SMILES	melting point [°C]
OCc1cc(Cl)nc(Cl)c1	128 to 130
COC1=C(Br)C(=O)C2(C)CCC1C2(C)C (stereo not given)	104
ON=C(Cl)c1c(Cl)cccc1Cl	85 to 89
Oc1ccc(O)c(Cl)c1	108
C#CC1(O)CCC2C3CCC4CC5(CCC4(C)C3CCC21C)OCCO5 (stereo not given)	197 to 199
CCCCCCCCCCCCCCCCCC(=O)OCCCCCCCCCCCCCCCC	57
O=[N+]([O-])c1cc(C=NO)ccc1C=NO	175 to 176
Cc1c(C)c(C)c2c(c1C)CC2=O	160 to 161
NC(=O)C1CCCNC1 (stereo not given)	102 to 108
CCNC(=O)Nc1ncc([N+](=O)[O-])s1	228
CC(C)(C)SC1(C#N)CC1(C#N)SC(C)(C)C (stereo not given)	104
CCN(CC)CCOC(=O)c1ccc(N)cc1	61
COn1c(C)c(C(C)=O)c2c3nonc3ccc21	201 to 203
Cc1n[nH]c(C)c1CCBr	118 to 120
CCOc1nc(F)cc2nc(S(=O)(=O)Nc3c(Cl)cccc3C(=O)OC)nn12	217
COC(=O)c1sc(SC)nc1N	104
O=C(O)C=Cc1cccc(C=CC(=O)O)c1	280
Cc1ccccc1[N+](=O)[O-]	-4
CC(=O)OC1C(O)C2=C(C(=O)C(OC(C)=O)C3(CC3C)C2=O)C2(C)CCC(=O)C(C)(C)C12 (stereo not given)	201
CC/C=C\C/C=C\C/C=C\CCCCCCCC(=O)O	-16.5
Cc1ccc2sc(C(=O)CBr)c(C)c2c1	123 to 125
Cc1ccnc(Cl)c1[N+](=O)[O-]	53
CC(C)C1=C(O)C(=O)C2=C(C=CC3C(C)(C)CCCC23C)C1=O (stereo not given)	167
CC(C)CCOC(=O)C=Cc1ccc(C=CC(=O)OCCC(C)C)c([N+](=O)[O-])c1	93 to 94

SMILES	melting point [°C]
C1CN(SSN2CCOCC2)CCO1	124
O=C1C2C3C=CC(C3)C2C(=O)N1O (stereo not given)	167 to 170
Clc1cc(Cl)c(-c2c(Cl)cccc2Cl)c(Cl)c1	85
N#Cc1ccc(N2CCNCC2)nc1	131
O=C(O)CNC(=O)CCl	102
FC(Cl)(Cl)CCl	-140
O=C(O)CCCCCCCCCCCC(=O)O	112 to 114
COC(=O)CCC(C)C1CCC2C3C(OC(C)=O)CC4CC(OC(C)=O)CCC4(C)C3CC(=O)C12C (stereo not given)	178
O=S1OCC2C(CO1)C1(Cl)C(Cl)=C(Cl)C2(Cl)C1(Cl)Cl (stereo not given)	109
Cn1cnc(C(=O)O)c1	245
COc1cc2nc(Cl)nc(Cl)c2cc1OC	177
N#CC(=Cc1ccc(O)cc1)C(=O)O	250 to 253
O=C(O)/C=C/c1ccc(C(F)(F)F)cc1	230 to 234
NNc1cc(C(F)(F)F)cc(C(F)(F)F)c1	82
S=C(c1ccc2c(c1)OCO2)N1CCOCC1	154
CCCCCCCCCCCCCCCC(C)=O	48
CC(=O)c1ccc(C=O)cc1	33
C=C(C)CNC(=S)NC	60 to 64
O=Cc1ccc(C=O)s1	114 to 117
CCCC(=NOCC)C1=C(O)CC(C2CCCSC2)CC1=O (stereo not given)	37.1
C#CC1(O)CCC2C3CCc4cc(O)ccc4C3C(OC)CC21C (stereo not given)	280
C#CCN1CCS(=O)(=O)CC1	114 to 116
Cc1ccc2cc3ccccc3cc2c1	209
COC(=O)CCCCC(=O)O	9

SMILES	melting point [°C]
O=S(=O)(O)CCN1CCN(CCS(=O)(=O)O)CC1	300
CCCCCCCCCCCCCCCCCCCCCO	68 to 71
C#CC1(O)CCC2C3CCc4cc(OC)ccc4C3CCC21C (stereo not given)	150
CCOC(=O)C(C(=O)OCC)=C(C(=O)OCC)C(=O)OCC	58
Nc1c(C(=O)O)sc2nccnc12	250
CC12CC3CC(C1)CC(C)(C3)C2	-30
O=C(CBr)c1cccc2c1OCCO2	71 to 72
O=C(O)c1cc(C(=O)O)cc(C(=O)O)c1	380
CCc1occc(=O)c1O	162
Cn1nc(C(=O)O)cc1-c1cccs1	156 to 158
O=C(O)c1ccc(SSc2ccc(C(=O)O)cc2[N+](=O)[O-])c([N+](=O)[O-])c1	308
Cc1c(Br)cc(N)cc1Br	91
O=C1C=C2C=C[C@@H]3C[C@@]2(O1)[C@H]1CCCCN31	142
Oc1ccc2c(c1)OCO2	63 to 65
CCCCCCCCC(=O)OC1CCC2(C)C(=CCC3C2CCC2(C)C(C(C)CCCC(C)C)CCC32)C1 (stereo not given)	74 to 77
FC(F)C(F)(F)F	-103
C#CC1(O)C=CC(O)(C#C)C=C1 (stereo not given)	125
C(#CP(c1ccccc1)c1ccccc1)P(c1ccccc1)c1ccccc1	86
Cc1nc(S(=O)(=O)Cl)cn1C	91 to 94
O=C(O)c1cc(F)c(F)cc1[N+](=O)[O-]	165
C/C=C/C1Nn2c(nnc2-c2cccnc2)S1 (stereo not given)	120 to 122
Cc1ccc(Br)c([N+](=O)[O-])c1	31

Continued, values first:

melting point [°C]	SMILES
184 to 186	OCC1OC(n2cnc3c(NCc4ccccc4)ncnc32)C(O)C1O (stereo not given)
171	COc1ccc(/C=N/c2nc(C(F)(F)F)n[nH]2)cc1
170	CCOC(=O)Oc1c(-c2ccccc2)[nH]c2cc([N+](=O)[O-])ccc12
250	Cc1c(CCO)c(=O)n2c([nH]c3ccccc32)c1C#N
148 to 150	NC(=S)Nc1ccccn1
87.5	CCN(CC)c1ccc(N=O)cc1
121 to 122	COC(=O)/C(=C/c1ccc([N+](=O)[O-])cc1)c1ccccc1C(=O)OC
130	N#C/C(=C\c1ccc(Cl)cc1)c1nc(-c2cccc3ccccc23)cs1
192	O=C1OCCOC(=O)c2ccccc2C(=O)OCCOC(=O)c2ccccc21
153	O=C(O)Cc1cc(O)ccc1O
224 to 226	O=C(c1ccncc1)N1N=C(c2ccccc2)CC1c1cn(-c2ccccc2)nc1-c1ccccc1 (stereo not given)
214 to 215	COc1cccc2cc(C(=NO)c3cc4cccc(OC)c4o3)oc12
179	COc1ccc(-c2ccc(S(=O)(=O)NC(C)C(=O)O)cc2)cc1 (stereo not given)
178	O=Cc1ccccc1OC1OC(CO)C(O)C(O)C1O (stereo not given)
94 to 95	O=C(CBr)Nc1ccccc1C(=O)c1ccccc1
74 to 75	O=Cc1ccc2ncccc2c1
7	BrC=Cc1ccccc1
256	COc1ccc(-c2coc3cc(O)ccc3c2=O)cc1
40 to 47	CC(=O)c1ccc(-c2ccccc2OC(F)(F)F)o1
179 to 182	c1ccc(C2=C(c3ccccc3)C(c3ccccc3)=C(c3ccccc3)C2)cc1
130	CC(C)(C)OC(=O)N[C@H](Cc1ccc(F)cc1)C(=O)O
221	N#CC(C#N)=C1Sc2nc3ccccc3nc2S1
168	NC(=O)c1cc(C(=O)CN(Cc2ccccc2)Cc2ccccc2)ccc1O
150	N#C/C(=C\c1ccc(Cl)cc1)c1nc2ccccc2s1
156	O=C(OC(C(=O)c1ccc2c3c(cccc13)CC2)c1ccccc1)c1ccccc1 (stereo not given)
301	Nc1nc2cc3nc(N)c(-c4ccccc4)cc3cc2cc1-c1ccccc1
141	c1ccc(P(CCP(c2ccccc2)c2ccccc2)c2ccccc2)cc1
88	Cc1ccccc1CC(=O)O

melting point [°C]	SMILES
144 to 146	Nc1cc2ccccc2c(Br)n1
86	Nc1cccc(C(c2cccc(N)c2)(C(F)(F)F)C(F)(F)F)c1
90	CCOC(=O)c1cccnc1-c1ncccc1C(=O)OCC
163	Cc1cccc(Nc2ccncc2S(=O)(=O)NC(=O)NC(C)C)c1
126	O=C1CCN2C(=O)c3ccccc3CC2C1 (stereo not given)
156 to 158	O=C(O)[C@@H]1CSCN1C(=O)OCC1c2ccccc2-c2ccccc21
228	CCOC(=O)C1=C(C)NC(=O)NC1c1cccc([N+](=O)[O-])c1 (stereo not given)
105 to 107	C=CCC(=O)N1CCN(C(=O)OCC2c3ccccc3-c3ccccc32)CC1
163	CC(C(=O)O)=C(C)c1cccc(C)c1
60	c1ccc(COc2cccc3[nH]ccc23)cc1
38	Fc1c(Cl)cccc1Cl
182	O=C(O)Cc1cc(I)c(Oc2ccc(O)c(I)c2)c(I)c1
149	O[C@@H](c1ccccc1)[C@@H](O)c1ccccc1
154	O=c1oc2ccccc2cc1O
267	Cc1ccc(-n2c(C=Cc3ccc([N+](=O)[O-])cc3)nc3cc([N+](=O)[O-])ccc32)cc1
29	N#CCOc1cccc(Cl)c1
275	O=[N+]([O-])c1ccc(N=Nc2ccc(O)c3ccccc23)cc1
231 to 232	O=C(O)c1ccc(-c2ccco2)cc1
146 to 148	O=C(Nc1cccnc1Cl)c1ccc(Cl)cc1
60	CC(C)C(C(=O)O)c1ccccc1 (stereo not given)
125	OCc1sc(-c2ccccc2)nc1-c1ccccc1
128	O=C(NO)c1ccccc1
136 to 139	O=C(Oc1ccccc1)c1cccc(C(=O)Oc2ccccc2)c1
114	CCOC(=O)CNC(c1ccccc1)(c1ccccc1)c1ccccc1
155	Cc1ccc(S(=O)(=O)N(C)Cc2ccc(N)cc2)cc1
63 to 64.2	CCCCCCCC(=O)Oc1ccc(/N=N/c2ccc(CCCC)cc2)cc1
112	CNC(=O)COC(=O)c1ccccc1
